Data published in patent publication US12077503B2, “Substituted cyclic amides and their use as herbicides” (FMC CORPORATION, priority 2015, dated 2024).

Columns and labels:
Format in all cases: in vivo
[1] = test system: sedge, umbrella (small-flower umbrella sedge, Cyperus difformis); assay: Test B flooded paddy test; settings: Flood, 250 g ai/ha; 0 to 100 scale where 0 is no effect and 100 is complete control; 13 to 15 d
Procedure, shortened: (§1)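 Percent control, visually estimated after 13–15 d in the greenhouse on a 0–100 basis, compares treated pots with untreated ones; compound was put into paddy water 3 cm above the soil when plants had two leaves.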

[2] = test system: barnyardgrass (Echinochloa crus-galli); assay: Test B flooded paddy test; settings: Flood, 250 g ai/ha; 0 to 100 scale where 0 is no effect and 100 is complete control; 13 to 15 d
Procedure, shortened: as §1

[3] = test system: ducksalad (Heteranthera limosa); assay: Test B flooded paddy test; settings: Flood, 250 g ai/ha; 0 to 100 scale where 0 is no effect and 100 is complete control; 13 to 15 d
Procedure, shortened: as §1

rice (Oryra sativa) = assay: Test B flooded paddy test; settings: Flood, 250 g ai/ha; 0 to 100 scale where 0 is no effect and 100 is complete control; 13 to 15 d
Procedure, shortened: as §1

Kochia (Kochia scoparia) [4] = assay: Test A preemergence
Procedure, shortened: (§2)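 Each rating is a visual injury score from 0 to 100 given about 10 d after treatment, judged against untreated controls kept alongside in the greenhouse. In loam soil–sand blend, seeds got a preemergence directed soil spray, while postemergence plants were 2 to 10 cm tall at spraying.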

[5] = test system: ryegrass, Italian (Italian ryegrass, Lolium multiflorum); assay: Test A preemergence
Procedure, shortened: as §2

[6] = test system: barnyardgrass (Echinochloa crus-galli); assay: Test A preemergence
Procedure, shortened: as §2

[7] = test system: pigweed (Amaranthus retroflexus); assay: Test A preemergence
[8] = test system: ragweed (common ragweed, Ambrosia elatior); assay: Test A preemergence
Procedure, shortened: as §2

[9] = test system: giant foxtail (Setaria faberii); assay: Test A preemergence
Procedure, shortened: as §2

Kochia (Kochia scoparia) [10] = assay: Test A postemergence; settings: postemergence, 0 to 100 scale (0 no effect, 100 complete control)
Procedure, shortened: as §2

[11] = test system: ryegrass, Italian (Italian ryegrass, Lolium multiflorum); assay: Test A postemergence; settings: postemergence, 0 to 100 scale (0 no effect, 100 complete control)
Procedure, shortened: as §2

[12] = test system: barnyardgrass (Echinochloa crus-galli); assay: Test A postemergence; settings: postemergence, 0 to 100 scale (0 no effect, 100 complete control)
Procedure, shortened: as §2

[13] = test system: Galium (catchweed bedstraw, Galium aparine); assay: Test A postemergence; settings: postemergence, 0 to 100 scale (0 no effect, 100 complete control)
Procedure, shortened: as §2

[14] = test system: blackgrass (Alopecurus myosuroides); assay: Test A postemergence; settings: postemergence, 0 to 100 scale (0 no effect, 100 complete control)
Procedure, shortened: as §2

[15] = test system: pigweed (Amaranthus retroflexus); assay: Test A postemergence; settings: postemergence, 0 to 100 scale (0 no effect, 100 complete control)
Procedure, shortened: as §2

[16] = test system: ragweed (common ragweed, Ambrosia elatior); assay: Test A postemergence; settings: postemergence, 0 to 100 scale (0 no effect, 100 complete control)
Procedure, shortened: as §2

corn (Zea mays) = assay: Test A postemergence; settings: postemergence, 0 to 100 scale (0 no effect, 100 complete control)
Procedure, shortened: as §2

[17] = test system: giant foxtail (Setaria faberii); assay: Test A postemergence; settings: postemergence, 0 to 100 scale (0 no effect, 100 complete control)
Procedure, shortened: as §2

[18] = test system: wheat (Triticum aestivum); assay: Test A postemergence; settings: postemergence, 0 to 100 scale (0 no effect, 100 complete control)
Procedure, shortened: as §2

[19] = 125 g ai/ha, Preemergence, visual injury after approximately 10 d, 0 to 100 scale where 0 is no effect and 100 is complete control
[20] = 500 g ai/ha, preemergence, 0 to 100 scale, 0 = no effect, 100 = complete control
[21] = 125 g ai/ha, visual rating after approx. 10 d
[22] = 500 g ai/ha, visual injury, approx. 10 d

Cc1cccc(C2CN(C)C(=O)C2C(=O)Nc2cccc(F)c2F)c1 (stereo not drawn) [Compound 667]
75: Plant response rating, Barnyardgrass [2]
80: Plant response rating, Ryegrass, Italian [5, 19] | Plant response rating, Ryegrass, Italian [11, 22] | Plant response rating, Corn (corn (Zea mays); [22])
0: Plant response rating, Sedge, Umbrella [1] | Plant response rating, Pigweed [15, 21] | Plant response rating, Pigweed [15, 22] | Plant response rating, Ragweed [16, 21]
10: Plant response rating, Rice (rice (Oryra sativa))
90: Plant response rating, Ducksalad [3] | Plant response rating, Ryegrass, Italian [5, 20] | Plant response rating, Barnyardgrass [6, 19] | Plant response rating, Barnyardgrass [6, 20] | Plant response rating, Foxtail, Giant [9, 19] | Plant response rating, Barnyardgrass [12, 21] | Plant response rating, Barnyardgrass [12, 22] | Plant response rating, Foxtail, Giant [17, 21] | Plant response rating, Foxtail, Giant [17, 22]
100: Plant response rating, Foxtail, Giant [9, 20]
20: Plant response rating, Pigweed [7, 19]
40: Plant response rating, Kochia (Kochia (Kochia scoparia) [4]; [19]) | Plant response rating, Wheat [18, 21]
70: Plant response rating, Kochia (Kochia (Kochia scoparia) [4]; [20]) | Plant response rating, Ragweed [8, 20] | Plant response rating, Blackgrass [14, 22] | Plant response rating, Corn (corn (Zea mays); [21]) | Plant response rating, Wheat [18, 22]
60: Plant response rating, Ragweed [8, 19] | Plant response rating, Kochia (Kochia (Kochia scoparia) [10]; [22]) | Plant response rating, Ryegrass, Italian [11, 21] | Plant response rating, Blackgrass [14, 21]
50: Plant response rating, Pigweed [7, 20] | Plant response rating, Kochia (Kochia (Kochia scoparia) [10]; [21]) | Plant response rating, Galium [13, 21] | Plant response rating, Galium [13, 22] | Plant response rating, Ragweed [16, 22]
